# Patent US8349880B2, “Bicyclic compounds for the reduction of beta-amyloid production” (Bristol-Myers Squibb Company, priority 2009, dated 2013)
# Tested on: Aβ1-42 production
# Assay: Cellular assay for inhibition of Aβ1-42 production (H4 APP751 SWE clone 8.20)
# Type: cell-based
# Conditions: 19 h, H4 APP751 SWE clone 8.20 cells, 19 h incubation; read-out: Activity Rating (Aβ42 cellular IC50, given as a number)
# Procedure, shortened: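 H4 cells stably expressing APP751 with the Swedish mutation (1.5×10^4 cells/well) incubated with compound for 19 h at 37° C in DMEM with 0.0125% BSA. Secreted Aβ42 measured overnight at 4° C by HTRF-type pairing of 565 (Aβ42 neoepitope) and 26D6 (N-terminal) antibodies. IC50 from curve fit.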
row,IC50 [nM],SMILES
1,6,"COc1cc(Nc2nc3n(n2)CCCCC3c2ccc(F)cc2)cnc1-n1cnc(Cl)c1 (centres unmarked) [Example 86, N-(6-(4-chloro-1H-imidazol-1-yl)-5-methoxypyridin-3-yl)-9-(4-fluorophenyl)-6,7,8,9-tetrahydro-5H-[1,2,4]triazolo[1,5-a]azepin-2-amine]"
2,3,"C=C1CCn2nc(Nc3ccc(-n4cnc(Cl)c4)c(OC)c3)nc2[C@H](c2ccc(F)cc2)C1 (single isomer, unassigned) [Example 134]"
3,9,"Cc1ncn(-c2ccc(Nc3nc4n(n3)CCCC[C@H]4c3ccc(OC(F)(F)F)cc3)cc2F)n1 (single isomer, unassigned) [Example 97]"
4,190,"COc1cc(Nc2nc3c(s2)CCCC3(N)c2ccccc2)ccc1-n1cnc(C)n1 (centres unmarked) [Example 82, N2-(3-methoxy-4-(3-methyl-1H-1,2,4-triazol-1-yl)phenyl)-4-phenyl-4,5,6,7-tetrahydrobenzo[d]thiazole-2,4-diamine]"
5,9,"COc1cc(Nc2nc3n(n2)CC=CC[C@H]3c2ccc(F)cc2)ccc1-n1cnc(Cl)c1 (single isomer, unassigned) [Example 2]"
6,53,"Cc1ncnn1-c1ccc(Nc2nc3n(n2)CCC[C@H]3c2ccc(F)cc2)cc1F (single isomer, unassigned) [Example 14]"

# Same assay, conditions: 19 h, H4 APP751 SWE clone 8.20 cells, 19 h incubation; read-out: Activity Rating (based on Aβ42 cellular IC50 values)
row,SMILES,IC50 [nM]
1,"COc1cc(Nc2nc3n(n2)CCCC[C@@H]3c2ccc(F)cc2)ccc1-n1cnc(Cl)n1 (single isomer, unassigned) [Example 88]",10 to 100
2,"COc1cc(Nc2nc3n(n2)CCCC[C@@H]3c2ccc(OCC(F)F)cc2)ccc1-n1cnc(Cl)c1 (single isomer, unassigned) [Example 163]",10 to 100
3,"COc1cc(Nc2nc3n(n2)CCCCC3c2ccc(S(=O)(=O)C(F)(F)F)cc2)ccc1-n1cnc(C)n1 (centres unmarked) [Example 130, N-(3-methoxy-4-(3-methyl-1H-1,2,4-triazol-1-yl)phenyl)-9-(4-(trifluoromethylsulfonyl)phenyl)-6,7,8,9-tetrahydro-5H-[1,2,4]triazolo[1,5-a]azepin-2-amine 2,2,2-trifluoroacetate]",10 to 100
4,"COc1cc(Nc2nc3c(s2)CCC[C@H]3c2ccccc2)ccc1-n1cnc(Cl)c1 (single isomer, unassigned) [Example 69]",10 to 100
5,"COc1cc(Nc2nc3n(n2)CCCC[C@@H]3c2ccc(OC(C)C)cc2)ccc1-n1cnc(Cl)c1 (single isomer, unassigned) [Example 104]",10 to 100
6,"COc1cc(Nc2nc3c(s2)CCC[C@@H]3c2ccccc2)ccc1-n1cnc(Cl)c1 (single isomer, unassigned) [Example 70]",100 to 1000
7,"COc1cc(Nc2nc3n(n2)CCCC[C@H]3c2ccc(OCC(F)F)cc2)ccc1-n1cnc(Cl)c1 (single isomer, unassigned) [Example 162]",10 to 100
8,"Cc1ncn(-c2ccc(Nc3nc4n(n3)CCCC[C@H]4c3ccc(F)cc3)cc2F)n1 (single isomer, unassigned) [Example 26]",10 to 100
9,"Cc1ncnn1-c1ccc(Nc2nc3n(n2)CCC[C@@H]3c2ccc(F)cc2)cc1F (single isomer, unassigned) [Example 15]",100 to 1000
10,"COc1cc(Nc2nc3c(s2)CCCC3c2ccccc2)ccc1-n1cnc(C)c1 (centres unmarked) [Example 71, N-(3-methoxy-4-(4-methyl-1H-imidazol-1-yl)phenyl)-4-phenyl-4,5,6,7-tetrahydrobenzo[d]thiazol-2-amine 2,2,2-trifluoroacetate]",10 to 100
11,"COc1cc(Nc2nc3n(n2)CCCC[C@@H]3c2cccc(F)c2)ccc1-n1cnc(Cl)c1 (single isomer, unassigned) [Example 46]",10 to 100

# Now from value to compound:
row,IC50 [nM],SMILES
1,10 to 100,"Cc1ncnn1-c1ccc(Nc2nc3n(n2)CCCC[C@H]3c2ccc(OCC(F)F)cc2)cc1F (single isomer, unassigned) [Example 120]"
2,10 to 100,"COc1cc(Nc2nc3n(n2)CC=CC[C@H]3c2ccc(F)cc2)ccc1-n1cnc(C)n1 (single isomer, unassigned) [Example 5]"
3,< 10,"COc1cc(Nc2nc3n(n2)CC[C@](C)(O)C[C@@H]3c2ccc(F)cc2)ccc1-n1cnc(Cl)c1 (relative stereo) [Example 147, rel-(7R,9R)-2-(4-(4-chloro-1H-imidazol-1-yl)-3-methoxyphenylamino)-9-(4-fluorophenyl)-7-methyl-6,7,8,9-tetrahydro-5H-[1,2,4]triazolo[1,5-a]azepin-7-ol 2,2,2-trifluoroacetate]"
4,< 10,"COc1cc(Nc2nc3n(n2)CC=CC[C@@H]3c2ccc(F)cc2)ccc1-n1cnc(Cl)c1 (single isomer, unassigned) [Example 3]"
5,< 10,"COc1cc(Nc2nc3n(n2)CCCCC3c2ccc(Cl)cc2Cl)ccc1-n1cnc(Cl)c1 (centres unmarked) [Example 19, N-(4-(4-chloro-1H-imidazol-1-yl)-3-methoxyphenyl)-9-(2,4-dichlorophenyl)-6,7,8,9-tetrahydro-5H-[1,2,4]triazolo azepin-2-amine 2,2,2-trifluoroacetate]"
6,< 10,"COc1cc(Nc2nc3n(n2)CC[C@@](C)(O)C[C@@H]3c2ccc(F)cc2)ccc1-n1cnc(Cl)c1 (single isomer, unassigned) [Example 148]"
7,< 10,"COc1cc(Nc2nc3n(n2)C[C@H](O)CC[C@H]3c2ccc(F)cc2)ccc1-n1cnc(Cl)c1 (relative stereo) [Example 62, rel-(6R,9S)-2-(4-(4-chloro-1H-imidazol-1-yl)-3-methoxyphenylamino)-9-(4-fluorophenyl)-6,7,8,9-tetrahydro-5H-[1,2,4]triazolo[1,5-a]azepin-6-ol 2,2,2-trifluoroacetate]"
8,< 10,"COc1cc(Nc2nc3n(n2)CCCCC3c2ccc(OC(C)C)cc2)ccc1-n1cnc(Cl)c1 (centres unmarked) [Example 102, N-(4-(4-chloro-1H-imidazol-1-yl)-3-methoxyphenyl)-9-(4-isopropoxyphenyl)-6,7,8,9-tetrahydro-5H-[1,2,4]triazolo azepin-2-amine]"
9,< 10,"Cc1ncn(-c2ccc(Nc3nc4n(n3)CCCCC4c3ccc(OC(F)(F)F)cc3)cc2F)n1 (centres unmarked) [Example 96, N-(3-fluoro-4-(3-methyl-1H-1,2,4-triazol-1-yl)phenyl)-9-(4-(trifluoromethoxy)phenyl)-6,7,8,9-tetrahydro-5H-[1,2,4]triazolo[1,5-a]azepin-2-amine]"
